# US4340609A, “Amidinourea derivative veterinary compositions for suppression of parasitemia” (William H. Rorer, Inc., priority 1980, dated 1982)
# Where two headings read alike, the source gives them in different places.
# Assays:
# [1] = tested on: plasmodium berghei; experiment: suppression of parasitemia in mice infected with plasmodium berghei; type: in vivo; conditions: for ED50: Plasmodium berghei, sc
# Procedure: Five representative amidinoureas were tested in mice infected with plasmodium berghei. The five compounds tested are the following:
# Groups of 10 mice each were used in seven doses totaling 70 mice per compound. The protozoal infection was induced by intraperitoneal injection of 5,000,000 parasitized blood cells from a donor. The compound was administered subcutaneously in doses ranging from 0.15 to 10 mg. per kg., suspended on 0.5% methacel solution (doses expressed as base). The compound was repeatedly injected on the day of inoculation (day 1), day 2 and day 3. Blood smears were performed on days 4, 5, 6 and 10.
# Untreated control but infected mice developed fulminating parasitemia of as high as 35% on day 10 and deaths occurred from day 12 to 14.
# [2] = LD50 in mice; conditions: mouse, in vivo
# [3] = triazine form/metabolite, cited from earlier work; for usefulness in therapy: malaria
# [4] = mice, s.c., 1.0 mg/kg on days 1-3, 4th day
# [5] = mice, s.c., 1.0 mg/kg on days 1-3, 5th day
# [6] = mice, s.c., 1.0 mg/kg on days 1-3, 6th day
# [7] = mice, s.c., 1.0 mg/kg on days 1-3, 10th day
# [8] = mice, s.c., 2.0 mg/kg on days 1-3, 4th day
# [9] = mice, s.c., 2.0 mg/kg on days 1-3, 5th day
# [10] = mice, s.c., 2.0 mg/kg on days 1-3, 6th day
# [11] = mice, s.c., 2.0 mg/kg on days 1-3, 10th day
# [12] = mice, s.c., 10.0 mg/kg on days 1-3, 4th day
# [13] = mice, s.c., 10.0 mg/kg on days 1-3, 5th day
# [14] = mice, s.c., 10.0 mg/kg on days 1-3, 6th day
# [15] = mice, s.c., 10.0 mg/kg on days 1-3, 10th day
# [16] = mice, s.c., .15 mg/kg on days 1-3, 4th day
# [17] = mice, s.c., .15 mg/kg on days 1-3, 5th day
# [18] = mice, s.c., .15 mg/kg on days 1-3, 6th day
# [19] = mice, s.c., .15 mg/kg on days 1-3, 10th day
# [20] = mice, s.c., .20 mg/kg on days 1-3, 4th day
# [21] = mice, s.c., .20 mg/kg on days 1-3, 5th day
# [22] = mice, s.c., .20 mg/kg on days 1-3, 6th day
# [23] = mice, s.c., .20 mg/kg on days 1-3, 10th day
# [24] = mice, s.c., .30 mg/kg on days 1-3, 4th day
# [25] = mice, s.c., .30 mg/kg on days 1-3, 5th day
# [26] = mice, s.c., .30 mg/kg on days 1-3, 6th day
# [27] = mice, s.c., .30 mg/kg on days 1-3, 10th day
# [28] = mice, s.c., .50 mg/kg on days 1-3, 4th day
# [29] = mice, s.c., .50 mg/kg on days 1-3, 5th day
# [30] = mice, s.c., .50 mg/kg on days 1-3, 6th day
# [31] = mice, s.c., .50 mg/kg on days 1-3, 10th day
structure (smiles),measurement,setting,value
"CCCNC(=O)NC(=N)Nc1c(Cl)cccc1Cl [Compound A, 1-(2,6-dichlorophenylamidino)-3-n-propylurea]",ED50,"[1]; 96 h, mice, s.c., levels of parasitemia, 4th day, read-out: SED50 (Suppressant Effective Dose50)",0.71 mg/kg
same,ED50,"[1]; 120 h, mice, s.c., levels of parasitemia, 5th day, read-out: SED50 (Suppressant Effective Dose50)",1.2 mg/kg
same,ED50,"[1]; 144 h, mice, s.c., levels of parasitemia, 6th day, read-out: SED50 (Suppressant Effective Dose50)",1.05 mg/kg
same,ED50,"[1]; 240 h, mice, s.c., levels of parasitemia, 10th day, read-out: SED50 (Suppressant Effective Dose50)",1.58 mg/kg
same,ED50,"[1]; mice, day 4 to day 10, read-out: HIGHEST SED50",1.58 mg/kg
same,ED50,"[1]; mice, day 4 to day 10, read-out: LOWEST SED50",0.71 mg/kg
same,FACTOR (HIGHEST SED50 ÷ LOWEST SED50),"[1]; factor of change, day 4 to day 10, duration of action",2.23
same,duration of action,"[1]; mice, among the five compounds",longest duration of action
same,SED50 rank,"[1]; mice, day 10, among the five compounds",lowest SED50 on day 10
same,Mean % Parasitemia,[1]; [4],2.50%
same,Mean % Suppression,[1]; [4],52.3%
same,Mean % Parasitemia,[1]; [5],4.20%
same,Mean % Suppression,[1]; [5],42.5%
same,Mean % Parasitemia,[1]; [6],4.60%
same,Mean % Suppression,[1]; [6],50.5%
same,Mean % Parasitemia,[1]; [7],20.4%
same,Mean % Suppression,[1]; [7],42.5%
same,% died,"[1]; mice, s.c., 1.0 mg/kg on days 1-3, 12th day",0%
same,% died,"[1]; mice, s.c., 1.0 mg/kg on days 1-3, 13th day",20%
same,% died,"[1]; mice, s.c., 1.0 mg/kg on days 1-3, 14th day",40%
same,Mean % Parasitemia,[1]; [8],2.25%
same,Mean % Suppression,[1]; [8],57.1%
same,Mean % Parasitemia,[1]; [9],3.00%
same,Mean % Suppression,[1]; [9],59.0%
same,Mean % Parasitemia,[1]; [10],3.80%
same,Mean % Suppression,[1]; [10],59.1%
same,Mean % Parasitemia,[1]; [11],16.5%
same,Mean % Suppression,[1]; [11],53.5%
same,% died,"[1]; mice, s.c., 2.0 mg/kg on days 1-3, 12th day",0%
same,% died,"[1]; mice, s.c., 2.0 mg/kg on days 1-3, 13th day",0%
same,% died,"[1]; mice, s.c., 2.0 mg/kg on days 1-3, 14th day",20%
same,Mean % Parasitemia,[1]; [12],0%
same,Mean % Suppression,[1]; [12],100.0%
same,Mean % Parasitemia,[1]; [13],0%
same,Mean % Suppression,[1]; [13],100.0%
same,Mean % Parasitemia,[1]; [14],0%
same,Mean % Suppression,[1]; [14],100.0%
same,Mean % Parasitemia,[1]; [15],0%
same,Mean % Suppression,[1]; [15],100.0%
same,% died,"[1]; mice, s.c., 10.0 mg/kg on days 1-3, 12th day",0%
same,% died,"[1]; mice, s.c., 10.0 mg/kg on days 1-3, 13th day",0%
same,% died,"[1]; mice, s.c., 10.0 mg/kg on days 1-3, 14th day",0%
same,Mean % Parasitemia,[1]; [16],5.00%
same,Mean % Suppression,[1]; [16],4.8%
same,Mean % Parasitemia,[1]; [17],6.90%
same,Mean % Suppression,[1]; [17],5.5%
same,Mean % Parasitemia,[1]; [18],8.10%
same,Mean % Suppression,[1]; [18],12.9%
same,Mean % Parasitemia,[1]; [19],33.02%
same,Mean % Suppression,[1]; [19],7.0%
same,% died,"[1]; mice, s.c., .15 mg/kg on days 1-3, 12th day",40%
same,% died,"[1]; mice, s.c., .15 mg/kg on days 1-3, 13th day",60%
same,% died,"[1]; mice, s.c., .15 mg/kg on days 1-3, 14th day",80%
same,Mean % Parasitemia,[1]; [20],4.00%
same,Mean % Suppression,[1]; [20],23.8%
same,Mean % Parasitemia,[1]; [21],6.80%
same,Mean % Suppression,[1]; [21],6.8%
same,Mean % Parasitemia,[1]; [22],7.50%
same,Mean % Suppression,[1]; [22],19.4%
same,Mean % Parasitemia,[1]; [23],30.1%
same,Mean % Suppression,[1]; [23],15.2%
same,% died,"[1]; mice, s.c., .20 mg/kg on days 1-3, 12th day",0%
same,% died,"[1]; mice, s.c., .20 mg/kg on days 1-3, 13th day",20%
same,% died,"[1]; mice, s.c., .20 mg/kg on days 1-3, 14th day",20%
same,Mean % Parasitemia,[1]; [24],3.25%
same,Mean % Suppression,[1]; [24],38.1%
same,Mean % Parasitemia,[1]; [25],6.30%
same,Mean % Suppression,[1]; [25],13.7%
same,Mean % Parasitemia,[1]; [26],7.20%
same,Mean % Suppression,[1]; [26],22.6%
same,Mean % Parasitemia,[1]; [27],28.5%
same,Mean % Suppression,[1]; [27],19.7%
same,% died,"[1]; mice, s.c., .30 mg/kg on days 1-3, 12th day",0%
same,% died,"[1]; mice, s.c., .30 mg/kg on days 1-3, 13th day",20%
same,% died,"[1]; mice, s.c., .30 mg/kg on days 1-3, 14th day",20%
same,Mean % Parasitemia,[1]; [28],2.75%
same,Mean % Suppression,[1]; [28],47.6%
same,Mean % Parasitemia,[1]; [29],5.00%
same,Mean % Suppression,[1]; [29],31.5%
same,Mean % Parasitemia,[1]; [30],5.40%
same,Mean % Suppression,[1]; [30],41.9%
same,Mean % Parasitemia,[1]; [31],24.8%
same,Mean % Suppression,[1]; [31],30.1%
same,% died,"[1]; mice, s.c., .50 mg/kg on days 1-3, 12th day",0%
same,% died,"[1]; mice, s.c., .50 mg/kg on days 1-3, 13th day",0%
same,% died,"[1]; mice, s.c., .50 mg/kg on days 1-3, 14th day",40%
same,LD50,[2],> 600 mg/kg
[H]/N=C(\N/C(=N/[H])Nc1ccc(Cl)cc1)NC(C)C [chloroguanide],excretion from the body,[3],rapidly excreted from the body when in its triazine form
same,usefulness in therapy,[3],little or no usefulness
CC1(C)N=C(N)N=C(N)N1c1ccc(Cl)cc1 [triazine metabolite of chloroquanide],excretion from the body,[3],rapid excretion from the body
same,usefulness in therapy,[3],little or no usefulness in the therapy of humans and monkeys
